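1) Cells in 96-well plates. 2) Compound, 48 h, 5 concentrations. 3) Linear interpolation between surrounding doses. 4) Unreached endpoint = highest concentration. GI50 = concentration required for 50% inhibition of growth.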 Activity calls are given as the source filed them. No stated cut-off is given here; in the data, active = GI50 up to about 1.1 µM and inactive = higher.
Experiments:
Experiment in all cases: inhibition of tumour cell growth, NCI panel, 48 h
ACHN = tested on: ACHN
CCRF-CEM = tested on: CCRF-CEM
COLO 205 = tested on: COLO 205
DMS-114 = tested on: DMS-114
HCT-116 = tested on: HCT-116
HL-60 = tested on: HL-60
HOP-62 = tested on: HOP-62
HOP-92 = tested on: HOP-92
HT-29 = tested on: HT-29
IGROV-1 = tested on: IGROV-1
K562 = tested on: K562
KM-20L2 = tested on: KM-20L2
KM12 = tested on: KM12
LXFL 529 = tested on: LXFL 529
M14 = tested on: M14
M19-MEL = tested on: M19-MEL
MOLT-4 = tested on: MOLT-4
Malme-3M = tested on: Malme-3M
NCI-H23 = tested on: NCI-H23
NCI-H460 = tested on: NCI-H460
NCI-H522 = tested on: NCI-H522
OVCAR-3 = tested on: OVCAR-3
OVCAR-4 = tested on: OVCAR-4
OVCAR-5 = tested on: OVCAR-5
RPMI-8226 = tested on: RPMI-8226
RXF 393 = tested on: RXF 393
SF-268 = tested on: SF-268
SF-295 = tested on: SF-295
SF-539 = tested on: SF-539
SK-MEL-28 = tested on: SK-MEL-28
SK-MEL-2 = tested on: SK-MEL-2
SK-OV-3 = tested on: SK-OV-3
SNB-19 = tested on: SNB-19
SNB-75 = tested on: SNB-75
SNB-78 = tested on: SNB-78
SR = tested on: SR
U-251 = tested on: U-251
UACC-257 = tested on: UACC-257
UACC-62 = tested on: UACC-62
UO-31 = tested on: UO-31
CAKI-1 = tested on: CAKI-1
DLD-1 = tested on: DLD-1
DMS-273 = tested on: DMS-273
HCC 2998 = tested on: HCC 2998
HCT-15 = tested on: HCT-15
OVCAR-8 = tested on: OVCAR-8
SK-MEL-5 = tested on: SK-MEL-5
SN12C = tested on: SN12C
SW-620 = tested on: SW-620
TK-10 = tested on: TK-10
XF498 = tested on: XF498
786-0 = tested on: 786-0
A498 = tested on: A498
A549 = tested on: A549
BT-549 = tested on: BT-549
DU-145 = tested on: DU-145
EKVX = tested on: EKVX
Hs-578T = tested on: Hs-578T
LOX IMVI = tested on: LOX IMVI
MCF7 = tested on: MCF7
MDA-MB-231 = tested on: MDA-MB-231
MDA-MB-435 = tested on: MDA-MB-435
MDA-N = tested on: MDA-N
NCI-H226 = tested on: NCI-H226
NCI/ADR-RES = tested on: NCI/ADR-RES
PC-3 = tested on: PC-3
T47D = tested on: T47D

Measured: GI50

CC1=C(C2=C(C)C(=O)c3c(c(C=O)c(O)c(O)c3C(C)C)C2=O)C(=O)c2c(C=O)c(O)c(O)c(C(C)C)c2C1=O [GOSSYPOLONE]
inactive: ACHN 2.96 µM | CCRF-CEM 1.82 µM | COLO 205 3.18 µM | DMS-114 2.23 µM | HCT-116 2.36 µM | HL-60 2.99 µM | HOP-62 3.64 µM | HOP-92 2.53 µM | HT-29 2.19 µM | IGROV-1 2.69 µM | K562 2.95 µM | KM-20L2 2.21 µM | KM12 2.24 µM | LXFL 529 3.4 µM | M14 1.96 µM | M19-MEL 4.32 µM | MOLT-4 2.74 µM | Malme-3M 4.33 µM | NCI-H23 3.72 µM | NCI-H460 2.98 µM | NCI-H522 4.67 µM | OVCAR-3 2.31 µM | OVCAR-4 3.05 µM | OVCAR-5 1.89 µM | RPMI-8226 2.29 µM | RXF 393 2.34 µM | SF-268 2.72 µM | SF-295 1.93 µM | SF-539 2.69 µM | SK-MEL-28 4.8 µM | SK-MEL-2 1.75 µM | SK-OV-3 3.21 µM | SNB-19 4.44 µM | SNB-75 6.59 µM | SNB-78 2.2 µM | SR 3.97 µM | U-251 2.64 µM | UACC-257 3.99 µM | UACC-62 2.77 µM | UO-31 2.17 µM

O=C(N/C(=C\c1ccc(Br)cc1)c1nc2ccccc2[nH]1)c1ccccc1
inactive: CAKI-1 23.3 µM | CCRF-CEM 19.9 µM | COLO 205 18.9 µM | DLD-1 17.5 µM | DMS-273 24.3 µM | HCC 2998 17.2 µM | HOP-92 11.6 µM | HT-29 18.1 µM | IGROV-1 24.7 µM | K562 15.8 µM | KM-20L2 15.1 µM | KM12 17.5 µM | LXFL 529 13.6 µM | M14 18.2 µM | MOLT-4 17.6 µM | Malme-3M 22.9 µM | NCI-H23 17.1 µM | NCI-H522 14.5 µM | OVCAR-3 19.1 µM | OVCAR-4 13.3 µM | OVCAR-5 14.9 µM | OVCAR-8 21 µM | RXF 393 16.4 µM | SF-295 28 µM | SK-MEL-28 15.8 µM | SK-MEL-2 16.3 µM | SK-MEL-5 19.8 µM | SK-OV-3 34.6 µM | SN12C 18.4 µM | SNB-19 18.4 µM | SNB-78 21.9 µM | SR 18.3 µM | SW-620 16.1 µM | TK-10 30.1 µM | U-251 17.3 µM | UACC-62 18.8 µM | UO-31 15.6 µM | XF498 15.9 µM
16.3 µM: HCT-15

CC(C)OC(=O)OCSc1ccccc1/N=C/c1cccc([N+](=O)[O-])c1
inactive: 786-0 > 10 µM | A498 > 10 µM | A549 > 10 µM | ACHN > 10 µM | BT-549 > 10 µM | CAKI-1 > 10 µM | CCRF-CEM > 10 µM | COLO 205 > 10 µM | DU-145 > 10 µM | EKVX > 10 µM | HCC 2998 > 10 µM | HCT-116 > 10 µM | HL-60 > 10 µM | HOP-62 > 10 µM | HOP-92 > 10 µM | HT-29 > 10 µM | Hs-578T > 10 µM | IGROV-1 > 10 µM | K562 > 10 µM | KM12 > 10 µM | LOX IMVI > 10 µM | M14 > 10 µM | MCF7 > 10 µM | MDA-MB-231 > 10 µM | MDA-MB-435 > 10 µM | MDA-N > 10 µM | MOLT-4 > 10 µM | Malme-3M > 10 µM | NCI-H226 > 10 µM | NCI-H23 > 10 µM | NCI-H460 > 10 µM | NCI-H522 > 10 µM | NCI/ADR-RES > 10 µM | OVCAR-3 > 10 µM | OVCAR-4 > 10 µM | OVCAR-5 > 10 µM | OVCAR-8 > 10 µM | PC-3 > 10 µM | RPMI-8226 > 10 µM | RXF 393 > 10 µM | SF-268 > 10 µM | SF-295 > 10 µM | SF-539 > 10 µM | SK-MEL-28 > 10 µM | SK-MEL-2 > 10 µM | SK-MEL-5 > 10 µM | SK-OV-3 > 10 µM | SN12C > 10 µM | SNB-19 > 10 µM | SNB-75 > 10 µM | SR > 10 µM | SW-620 > 10 µM | T47D > 10 µM | TK-10 > 10 µM | U-251 > 10 µM | UACC-257 > 10 µM | UACC-62 > 10 µM | UO-31 > 10 µM
> 10 µM: HCT-15

Source: ChEMBL document CHEMBL1201862, “PubChem BioAssay data set” (2004)
